# Target: hMAT2A (Homo sapiens (Human), UniProt P31153)
# Experiment: Phosphate Sensor Fluorescence Assay (MAT2A enzyme inhibition)
# Format: biochemical
# Details: L-methionine 500 uM, ATP 500 uM, class symbols
# Description: The ability of the compound of present disclosure to inhibit MAT2A enzyme was determined using the Malachite Green or Phosphate Sensor Fluorescence Assay described below.
# B. Phosphate Sensor Fluorescence Assay
# MAT2A enzyme is incubated with a test compound in DMSO or DMSO and its substrates (L-methionine and ATP) in a microtiter plate. The enzymatic reaction is stopped by the addition of Working Phosphate Sensor Mixture. The plate is analyzed for fluorescence at 450 nm.
# Assay Buffer: 50 mM Tris, pH 7.5/50 mM KCl/10 mM MgCl2/0.01% Brij-35/1 mM DTT/0.1% BGG/40 nM PNP/6 uM 7-MEG
# L-methionine: 500 uM before the addition of Working Phosphate Sensor Mixture
# ATP: 500 uM before the addition of Working Phosphate Sensor Mixture
# Test compounds or DMSO were added to the appropriate well suing D300e digital dispenser. 5 μl/well of Assay Buffer was added to the wells corresponding to the negative control and 5 μl/well of MAT2A was added to all the wells except for those corresponding to the negative control. After incubating the plate at room temperature for 15 minutes, 5 μl/well of the 1 mM L-methionine/1 mM ATP mixture was added to all wells. The plate was centrifuged at 1000 rpm for 1 minute and then incubated at room temperature for 1 hour. 5 μl of the Working Phosphate Sensor Mixture was added to all wells and the plate was centrifuged at 1000 rpm for 1 minute. The plate was read for fluorescence at 450 nm after exciting at 430 nm.
# Percent inhibition was calculated in Chemical and Biological Information System (CBIS), (ChemInnovation Software Inc.). Curves were fitted by CBIS as % inhibition vs. log [compound concentration] using a 4-parameter inhibition model. Fit=(A+((B−A)/(1+((C/x)^D)))) Res=(y−fit)
# Chain of hMAT2A (P31153 whole entry): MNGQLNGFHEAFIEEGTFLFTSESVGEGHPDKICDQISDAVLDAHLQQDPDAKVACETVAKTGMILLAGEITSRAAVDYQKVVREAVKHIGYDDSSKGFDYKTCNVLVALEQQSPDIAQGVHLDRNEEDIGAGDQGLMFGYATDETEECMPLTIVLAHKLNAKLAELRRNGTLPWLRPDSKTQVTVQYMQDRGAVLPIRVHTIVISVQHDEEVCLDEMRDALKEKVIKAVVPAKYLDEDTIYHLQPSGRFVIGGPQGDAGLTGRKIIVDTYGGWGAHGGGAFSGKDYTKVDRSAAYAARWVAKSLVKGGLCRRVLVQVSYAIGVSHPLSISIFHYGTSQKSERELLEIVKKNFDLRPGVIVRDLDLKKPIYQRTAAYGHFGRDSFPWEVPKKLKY
row,IC50 [nM],Compound
1,< 200,1-[2-(difluoromethoxy)(3--pyridyl)]-7- cyclopropyl-4-[(cyclopropylmethyl)- amino]hydroquinazolin-2-one [Example 416]
2,< 200,"O=c1nc(N2CC[C@@H](O)C2)c2ccc(Cl)cc2n1-c1ccccc1Cl (atropisomer, axis not shown) [Example 135, 4-((3R)-3-hydroxypyrrolidin-1-yl)-7-chloro-1-(2-chlorophenyl)hydro-quinazolin-2-one]"
3,< 200,"C[C@H](CO)Nc1nc(=O)n(-c2ccccc2Cl)c2nc(C(F)(F)F)ccc12 (atropisomer, axis not shown) [Example 323, (R)-(1Sa)-(2-chlorophenyl)-4-((1-hydroxypropan-2-yl)amino)-7-(trifluoro-methyl)pyrido-[2,3-d]pyrimidin-2(1H)-one]"
4,< 200,"O=c1nc(N[C@@H]2C[C@H]2F)c2ccc(OC(F)(F)F)cc2n1-c1ccccc1Cl (atropisomer, axis not shown) [Example 404, 4-[((1R,2R)-2-fluorocyclopropyl)-amino]-1-(2-chlorophenyl)-7-(trifluoromethoxy)hydroquinazolin-2-one]"
5,< 200,"O=c1nc(N[C@@H]2CC[C@@H]2O)c2ccc(C(F)(F)F)nc2n1-c1ccccc1Cl (atropisomer, axis not shown; (Sa)) [Example 335, 4-[((2S,1R)-2-hydroxycyclobutyl)-amino]-(1Sa)-(2-chlorophenyl)-7-(trifluoromethyl)hydro-pyrido[2,3-d]-pyrimidin-2(1H)-one]"
6,< 200,"O=c1nc(N[C@H]2CC[C@@H]2O)c2ccc(C(F)(F)F)nc2n1-c1ccccc1Cl (atropisomer, axis not shown; (Sa)) [Example 337, 4-[((1S,2 S)-2-hydroxycyclobutyl)-amino]-(1Sa)-(2-chlorophenyl)-7-(trifluoromethyl)hydro-pyridino [2,3-d]-pyrimidin-2-one]"
7,< 200,CC1(O)CCN(c2nc(=O)n(-c3ccccc3Cl)c3nc(C(F)(F)F)ccc23)C1 (racemic) [Example 255]
8,1000 to 10000,"CC1(C)[C@H](O)C[C@@H]1Nc1nc(=O)n(-c2ccccc2Cl)c2nc(C(F)(F)F)ccc12 (relative stereo) [Example 276, 4-[((cis)-3-hydroxy-2,2-dimethylcyclo-butyl)amino]-1-(2-chlorophenyl)-7-(trifluoromethyl)-pyrido[2,3-d]-pyrimidin-2(1H)-one]"
9,200 to 500,"CNc1nc(=O)n(-c2cccc(C(F)(F)F)c2)c2cc(Cl)ccc12 [Example 86, 7-chloro-4-(methylamino)-1-[3-(trifluoromethyl)phenyl]hydroquina-zolin-2-one]"
10,< 200,"O=c1nc(N2CC[C@@H](O)C2)c2ccc(Cl)cc2n1-c1ccccc1Br [Example 87, 4-((3R)-3-hydroxypyrrolidin-1-yl)-1-(2-bromophenyl)-7-chlorohydroquinazolin-2-one]"
11,< 200,"CC1(Nc2nc(=O)n(-c3ccccc3Cl)c3nc(C(F)(F)F)ccc23)CC1 [Example 88, 1-(2-chlorophenyl)-4((1-methylcyclo-propyl)amino)-7-(trifluoromethyl)-pyrido[2,3-d]pyrimidin-2(1H)-one]"
12,200 to 500,"CNc1nc(=O)n(-c2ccnc(OC)c2)c2nc(C(F)(F)F)ccc12 [Example 90, 1-(2-methoxypyridin-4-yl)-4-(methyl-amino)-7-(trifluoromethyl)pyrido[2,3-d]-pyrimidin-2(1H)-one]"
13,< 200,"CNc1nc(=O)n(-c2cccc(OC)n2)c2nc(C(F)(F)F)ccc12 [Example 91, 1-(6-methoxypyridin-2-yl)-4-(methylamino)-7-(trifluoromethyl)-pyrido[2,3-d]pyrimidin-2(1H)-one]"

row,Compound,IC50 [nM]
1,"4-(3,3-difluoropyrrolidin-1-yl)-7- chloro-1-phenylhydroquinazolin-2-one [Example 207]",< 200

# Same assay, conditions: L-methionine 500 uM, ATP 500 uM, numeric bound
row,IC50 [nM],Compound
1,> 10000,"CNc1nc(=O)n(-c2ccccc2)c2cc(Cl)cc(OC3CNC3)c12 [Example 85, 5-azetidin-3-yloxy-7-chloro-4-(methyl-amino)-1-phenylhydroquinazolin-2-one]"

# Source: patent US11046691B1 (IDEAYA BIOSCIENCES, INC., priority 2018, dated 2021)
